Measured values as given in ChEMBL document CHEMBL1143799, “Synthesis and primary cytotoxicity evaluation of new imidazo[2,1-b]thiazole derivatives” (2007).

Columns and labels:
Type in all cases: functional
HOP-62 = assay: Growth inhibition of human HOP62 cells after 48 hrs by SRB protein assay; conditions: HOP-62, 48 h; for TGI: read-out: Log TGI (converted)
NCI-H226 = assay: Growth inhibition of human NCI-H226 cells after 48 hrs by SRB protein assay; conditions: NCI-H226, 48 h; for TGI: read-out: Log TGI (converted)
SK-MEL-2 = assay: Growth inhibition of human SK-MEL-2 cells after 48 hrs by SRB protein assay; conditions: SK-MEL-2, 48 h; for TGI: read-out: Log TGI (converted)
SF-268 [1] = assay: Growth inhibition of human SF268 cells after 48 hrs by SRB protein assay; conditions: SF-268, 48 h; for TGI: read-out: Log TGI (converted)
HCT-15 = assay: Growth inhibition of human HCT15 cells after 48 hrs by SRB protein assay; conditions: HCT-15, 48 h; for TGI: read-out: Log TGI (converted)
NCI/ADR-RES = assay: Growth inhibition of human NCI/ADR-RES cells after 48 hrs by SRB protein assay; conditions: for TGI: read-out: Log TGI (converted)
SF-268 [2] = assay: Cytotoxicity against human SF268 cells assessed as growth at 100 uM after 48 hrs by SRB protein assay relative to control; conditions: SF-268, 48 h, read-out: Activity
HCT-116 = assay: Growth inhibition of human HCT116 cells after 48 hrs by SRB protein assay; conditions: HCT-116, 48 h; for TGI: read-out: Log TGI (converted)
LOX IMVI = assay: Growth inhibition of human LOX IMVI cells after 48 hrs by SRB protein assay; conditions: for TGI: read-out: Log TGI (converted)
OVCAR-3 = assay: Growth inhibition of human OVCAR-3 cells after 48 hrs by SRB protein assay; conditions: OVCAR-3, 48 h; for TGI: read-out: Log TGI (converted)
SW-620 = assay: Growth inhibition of human SW620 cells after 48 hrs by SRB protein assay; conditions: SW-620, 48 h; for TGI: read-out: Log TGI (converted)
MCF7 = assay: Cytotoxicity against human MCF7 cells assessed as growth at 100 uM after 48 hrs by SRB protein assay relative to control; conditions: MCF7, 48 h, read-out: Activity
NCI-H460 = assay: Cytotoxicity against human […] cells assessed as growth at 100 uM after 48 hrs by SRB protein assay relative to control; conditions: NCI-H460, 48 h, read-out: Activity
K562 = assay: Growth inhibition of human K562 cells after 48 hrs by SRB protein assay; conditions: K562, 48 h; for TGI: read-out: Log TGI (converted)
HT-29 = assay: Growth inhibition of human HT29 cells after 48 hrs by SRB protein assay; conditions: HT-29, 48 h; for TGI: read-out: Log TGI (converted)
TK-10 = assay: Growth inhibition of human TK10 cells after 48 hrs by SRB protein assay; conditions: TK-10, 48 h; for TGI: read-out: Log TGI (converted)
Hs-578T = assay: Growth inhibition of human HS578T cells after 48 hrs by SRB protein assay; conditions: for TGI: read-out: Log TGI (converted)
MDA-MB-435 = assay: Growth inhibition of human MDA-MB-435 cells after 48 hrs by SRB protein assay; conditions: MDA-MB-435, 48 h; for TGI: read-out: Log TGI (converted)
OVCAR-4 = assay: Growth inhibition of human OVCAR4 cells after 48 hrs by SRB protein assay; conditions: OVCAR-4, 48 h; for TGI: read-out: Log TGI (converted)
A498 = assay: Growth inhibition of human A498 cells after 48 hrs by SRB protein assay; conditions: A498, 48 h; for TGI: read-out: Log TGI (converted)

Structure (SMILES) | GI50 (HOP-62) | TGI (HOP-62) | GI50 (SK-MEL-2) | TGI (SK-MEL-2) | GI50 (SF-268 [1]) | TGI (SF-268 [1]) | GI50 (HCT-15) | TGI (HCT-15) | GI50 (HCT-116) | TGI (HCT-116) | GI50 (LOX IMVI) | TGI (LOX IMVI) | GI50 (OVCAR-3) | TGI (OVCAR-3) | GI50 (SW-620) | TGI (SW-620) | GI50 (HT-29) | TGI (HT-29) | GI50 (Hs-578T) | TGI (Hs-578T) | other results
O=C(Cc1csc2nc(-c3ccc(Br)cc3)cn12)N/N=C/c1ccccc1O | 3.89 µM | 14.8 µM | 20.9 µM | 53.7 µM | > 100 µM | > 100 µM | 0.955 µM | 17.4 µM | 3.24 µM | 12.3 µM | 3.47 µM | 12.9 µM | 3.24 µM | 15.1 µM | 3.98 µM | 17.4 µM | 6.03 µM | 19.1 µM | 13.5 µM | 42.7 µM | GI50 (NCI-H226): 1.95 µM; TGI (NCI-H226): 7.76 µM; GI50 (NCI/ADR-RES): 2.51 µM; TGI (NCI/ADR-RES): 6.76 µM; growth at 100 µM (SF-268 [2]): 50%; growth at 100 µM (MCF7): 7%; growth at 100 µM (NCI-H460): 0%; GI50 (K562): 0.0372 µM; TGI (K562): 2.95 µM; GI50 (TK-10): 2.04 µM; TGI (TK-10): 8.71 µM; GI50 (MDA-MB-435): 3.31 µM; TGI (MDA-MB-435): 13.5 µM
COc1cccc(OC)c1/C=N/NC(=O)Cc1csc2nc(-c3ccc(Br)cc3)cn12 | 13.2 µM | 30.2 µM | 89.1 µM | > 100 µM | > 100 µM | > 100 µM | 7.41 µM | 64.6 µM | 4.57 µM | 15.8 µM | 12.6 µM | 47.9 µM | 15.8 µM | 58.9 µM | 6.46 µM | 49 µM | 16.2 µM | > 100 µM | 11.5 µM | 45.7 µM | GI50 (OVCAR-4): 28.2 µM; TGI (OVCAR-4): > 100 µM; GI50 (NCI/ADR-RES): 12.9 µM; TGI (NCI/ADR-RES): 35.5 µM; growth at 100 µM (SF-268 [2]): 82%; growth at 100 µM (MCF7): 27%; growth at 100 µM (NCI-H460): 15%; GI50 (K562): 2.95 µM; TGI (K562): 6.92 µM; GI50 (TK-10): 16.2 µM; TGI (TK-10): 51.3 µM; GI50 (MDA-MB-435): 3.98 µM; TGI (MDA-MB-435): 16.2 µM
O=C(Cc1csc2nc(-c3ccc(Br)cc3)cn12)N/N=C/c1ccc(Cl)cc1Cl | 16.6 µM | 34.7 µM | 72.4 µM | > 100 µM | > 100 µM | > 100 µM | 25.7 µM | 72.4 µM | 17 µM | 37.2 µM | 21.4 µM | 49 µM | 34.7 µM | > 100 µM | 22.9 µM | 60.3 µM | 40.7 µM | > 100 µM | 31.6 µM | 89.1 µM | GI50 (NCI-H226): 31.6 µM; TGI (NCI-H226): 91.2 µM; GI50 (OVCAR-4): 37.2 µM; TGI (OVCAR-4): > 100 µM; GI50 (NCI/ADR-RES): 17.4 µM; TGI (NCI/ADR-RES): 52.5 µM; growth at 100 µM (SF-268 [2]): 94%; growth at 100 µM (MCF7): 46%; growth at 100 µM (NCI-H460): 24%; GI50 (A498): 29.5 µM; TGI (A498): 63.1 µM; GI50 (MDA-MB-435): 31.6 µM; TGI (MDA-MB-435): > 100 µM
O=C(Cc1csc2nc(-c3ccc(Br)cc3)cn12)N/N=C/c1ccccc1 | 15.1 µM | 39.8 µM | 33.1 µM | > 100 µM | > 100 µM | > 100 µM | 16.2 µM | > 100 µM | 9.33 µM | 21.4 µM | 12.3 µM | 91.2 µM | 24 µM | 46.8 µM | 18.6 µM | 63.1 µM | 43.7 µM | > 100 µM | 16.2 µM | 51.3 µM | GI50 (OVCAR-4): 46.8 µM; TGI (OVCAR-4): > 100 µM; GI50 (NCI/ADR-RES): 13.5 µM; TGI (NCI/ADR-RES): 67.6 µM; growth at 100 µM (SF-268 [2]): 65%; growth at 100 µM (MCF7): 57%; growth at 100 µM (NCI-H460): 12%; TGI (K562): 7.94 µM; GI50 (TK-10): 14.1 µM; TGI (TK-10): 41.7 µM; GI50 (MDA-MB-435): 12 µM; TGI (MDA-MB-435): 51.3 µM
O=C(Cc1csc2nc(-c3ccc(Br)cc3)cn12)N/N=C/c1ccc(O)cc1 | 18.2 µM | 53.7 µM | 26.3 µM | 95.5 µM | > 100 µM | > 100 µM | 17.8 µM | 61.7 µM | 10.5 µM | 24 µM | 11.2 µM | 26.3 µM | 24 µM | 49 µM | 31.6 µM | > 100 µM | 50.1 µM | > 100 µM | 23.4 µM | 93.3 µM | GI50 (OVCAR-4): > 100 µM; TGI (OVCAR-4): > 100 µM; GI50 (NCI/ADR-RES): 21.4 µM; TGI (NCI/ADR-RES): 61.7 µM; growth at 100 µM (SF-268 [2]): 42%; growth at 100 µM (MCF7): 22%; growth at 100 µM (NCI-H460): 11%; GI50 (K562): 1.82 µM; TGI (K562): 7.08 µM; GI50 (TK-10): 9.77 µM; TGI (TK-10): 33.1 µM; GI50 (MDA-MB-435): 6.31 µM; TGI (MDA-MB-435): 24.5 µM
Nc1nc2[nH]cnc2c(=S)[nH]1 [THIOGUANINE] | 0.741 µM | 28.8 µM | 0.933 µM | 10.7 µM | 1.15 µM | 158 µM | 1.1 µM | 51.3 µM | 0.537 µM | 16.2 µM | 0.209 µM | 9.12 µM | 0.708 µM | 6.76 µM | 18.6 µM | 63.1 µM | 1.15 µM | 105 µM | 7.41 µM | 182 µM | GI50 (NCI-H226): 4.07 µM; TGI (NCI-H226): 97.7 µM; GI50 (OVCAR-4): 1.51 µM; TGI (OVCAR-4): 100 µM; GI50 (K562): 0.407 µM; TGI (K562): 70.8 µM; GI50 (TK-10): 1.05 µM; TGI (TK-10): 79.4 µM; GI50 (A498): 6.76 µM; TGI (A498): 95.5 µM; GI50 (MDA-MB-435): 0.851 µM; TGI (MDA-MB-435): 32.4 µM
